Test results: ChEMBL document CHEMBL3885881, “DrugMatrix”

Organism: Rattus norvegicus
Experiment: DrugMatrix - Regimen: Daily Repeat
Format: toxicity, organism-based, Sprague-Dawley
Set-up: regimen Daily Repeat, gender Male, age 6-8 weeks
Details: in vivo, po, route oral GAVAGE, vehicle .5 % CMC; for ABSOLUTE BASOPHIL / ABSOLUTE EOSINOPHIL / ABSOLUTE LYMPHOCYTE / ABSOLUTE MONOCYTE / ABSOLUTE SEGMENTED NEUTROPHIL / BASOPHIL / EOSINOPHIL / ERYTHROCYTE COUNT / HEMATOCRIT / HEMOGLOBIN / LEUKOCYTE COUNT / LYMPHOCYTE / MEAN CORPUSCULAR HEMOGLOBIN / MEAN CORPUSCULAR HEMOGLOBIN CONCENTRATION / MEAN CORPUSCULAR VOLUME / MONOCYTE / NEUTROPHIL / NUCLEATED RED BLOOD CELLS / PLATELET COUNT: tissue Blood; for ALANINE AMINOTRANSFERASE / ALBUMIN / ALKALINE PHOSPHATASE / ASPARTATE AMINOTRANSFERASE / BLOOD UREA NITROGEN / CARBON DIOXIDE / CHLORIDE / CHOLESTEROL / CREATINE PHOSPHOKINASE / CREATININE / GLUCOSE / LACTATE DEHYDROGENASE / LIPASE / PHOSPHORUS / POTASSIUM / SODIUM / TOTAL BILIRUBIN / TOTAL PROTEIN / URIC ACID: tissue Plasma
[1] = 10 mg/kg, 72 h, dose level Low, time 3 day
[2] = 10 mg/kg, 120 h, dose level Low, time 5 day
[3] = 1500 mg/kg, 72 h, dose level High, time 3 day
[4] = 1500 mg/kg, 120 h, dose level High, time 5 day

SMILES: CCOC(=O)[C@H](CCc1ccccc1)N[C@@H](C)C(=O)N1CCC[C@H]1C(=O)O
- ABSOLUTE BASOPHIL [1]: 0 CELLS/uL
- ABSOLUTE EOSINOPHIL [1]: 88 CELLS/uL
- ABSOLUTE LYMPHOCYTE [1]: 12760.67 CELLS/uL
- ABSOLUTE MONOCYTE [1]: 130 CELLS/uL
- ABSOLUTE SEGMENTED NEUTROPHIL [1]: 688 CELLS/uL
- BASOPHIL [1]: 0%
- EOSINOPHIL [1]: 0.67%
- ERYTHROCYTE COUNT [1]: 5.43 x10E6/uL
- HEMATOCRIT [1]: 32.83%
- HEMOGLOBIN [1]: 13.1 G/DL
- LEUKOCYTE COUNT [1]: 13.67 x10E3/uL
- LYMPHOCYTE [1]: 93.33%
- MEAN CORPUSCULAR HEMOGLOBIN [1]: 24.13 pg
- MEAN CORPUSCULAR HEMOGLOBIN CONCENTRATION [1]: 39.87 G/DL
- MEAN CORPUSCULAR VOLUME [1]: 60.53 fL
- MONOCYTE [1]: 1%
- NEUTROPHIL [1]: 5%
- NUCLEATED RED BLOOD CELLS [1]: 0.33 /100WBC
- PLATELET COUNT [1]: 1331.67 x10E3/uL
- ALANINE AMINOTRANSFERASE [1]: 46 u/L
- ALBUMIN [1]: 4.5 G/DL
- ALKALINE PHOSPHATASE [1]: 398 u/L
- ASPARTATE AMINOTRANSFERASE [1]: 79 u/L
- BLOOD UREA NITROGEN [1]: 17.67 mg/dL
- CARBON DIOXIDE [1]: 28.33 mmol/L
- CHLORIDE [1]: 98 MEQ/L
- CHOLESTEROL [1]: 60.33 mg/dL
- CREATINE PHOSPHOKINASE [1]: 181.67 u/L
- CREATININE [1]: 0.17 mg/dL
- GLUCOSE [1]: 149.33 mg/dL
- LACTATE DEHYDROGENASE [1]: 115.33 u/L
- LIPASE [1]: 9.67 u/L
- PHOSPHORUS [1]: 11.47 mg/dL
- POTASSIUM [1]: 6.99 MEQ/L
- SODIUM [1]: 142.87 MEQ/L
- TOTAL BILIRUBIN [1]: 0.23 mg/dL
- TOTAL PROTEIN [1]: 6.13 G/DL
- URIC ACID [1]: 1.37 mg/dL
- ABSOLUTE BASOPHIL [2]: 0 CELLS/uL
- ABSOLUTE EOSINOPHIL [2]: 28.33 CELLS/uL
- ABSOLUTE LYMPHOCYTE [2]: 10805 CELLS/uL
- ABSOLUTE MONOCYTE [2]: 28.33 CELLS/uL
- ABSOLUTE SEGMENTED NEUTROPHIL [2]: 738.33 CELLS/uL
- BASOPHIL [2]: 0%
- EOSINOPHIL [2]: 0.33%
- ERYTHROCYTE COUNT [2]: 5.56 x10E6/uL
- HEMATOCRIT [2]: 34.6%
- HEMOGLOBIN [2]: 13.37 G/DL
- LEUKOCYTE COUNT [2]: 11.6 x10E3/uL
- LYMPHOCYTE [2]: 93%
- MEAN CORPUSCULAR HEMOGLOBIN [2]: 24.03 pg
- MEAN CORPUSCULAR HEMOGLOBIN CONCENTRATION [2]: 38.63 G/DL
- MEAN CORPUSCULAR VOLUME [2]: 62.23 fL
- MONOCYTE [2]: 0.33%
- NEUTROPHIL [2]: 6.33%
- NUCLEATED RED BLOOD CELLS [2]: 0 /100WBC
- PLATELET COUNT [2]: 1173.33 x10E3/uL
- ALANINE AMINOTRANSFERASE [2]: 49.33 u/L
- ALBUMIN [2]: 4.27 G/DL
- ALKALINE PHOSPHATASE [2]: 405.67 u/L
- ASPARTATE AMINOTRANSFERASE [2]: 79.33 u/L
- BLOOD UREA NITROGEN [2]: 17.33 mg/dL
- CARBON DIOXIDE [2]: 26.33 mmol/L
- CHLORIDE [2]: 102.33 MEQ/L
- CHOLESTEROL [2]: 51.67 mg/dL
- CREATINE PHOSPHOKINASE [2]: 399 u/L
- CREATININE [2]: 0.17 mg/dL
- GLUCOSE [2]: 175 mg/dL
- LACTATE DEHYDROGENASE [2]: 121.67 u/L
- LIPASE [2]: 9 u/L
- PHOSPHORUS [2]: 11.1 mg/dL
- POTASSIUM [2]: 6.79 MEQ/L
- SODIUM [2]: 142.87 MEQ/L
- TOTAL BILIRUBIN [2]: 0.23 mg/dL
- TOTAL PROTEIN [2]: 6.07 G/DL
- URIC ACID [2]: 1.2 mg/dL
- ABSOLUTE BASOPHIL [3]: 0 CELLS/uL
- ABSOLUTE EOSINOPHIL [3]: 63.67 CELLS/uL
- ABSOLUTE LYMPHOCYTE [3]: 17047.67 CELLS/uL
- ABSOLUTE MONOCYTE [3]: 127.33 CELLS/uL
- ABSOLUTE SEGMENTED NEUTROPHIL [3]: 1494.67 CELLS/uL
- BASOPHIL [3]: 0%
- EOSINOPHIL [3]: 0.33%
- ERYTHROCYTE COUNT [3]: 5.46 x10E6/uL
- HEMATOCRIT [3]: 34.33%
- HEMOGLOBIN [3]: 13.63 G/DL
- LEUKOCYTE COUNT [3]: 18.73 x10E3/uL
- LYMPHOCYTE [3]: 91%
- MEAN CORPUSCULAR HEMOGLOBIN [3]: 24.93 pg
- MEAN CORPUSCULAR HEMOGLOBIN CONCENTRATION [3]: 39.7 G/DL
- MEAN CORPUSCULAR VOLUME [3]: 62.93 fL
- MONOCYTE [3]: 0.67%
- NEUTROPHIL [3]: 8%
- NUCLEATED RED BLOOD CELLS [3]: 1 /100WBC
- PLATELET COUNT [3]: 1237.33 x10E3/uL
- ALANINE AMINOTRANSFERASE [3]: 41.33 u/L
- ALBUMIN [3]: 4.27 G/DL
- ALKALINE PHOSPHATASE [3]: 390.33 u/L
- ASPARTATE AMINOTRANSFERASE [3]: 57.33 u/L
- BLOOD UREA NITROGEN [3]: 34.67 mg/dL
- CARBON DIOXIDE [3]: 32.33 mmol/L
- CHLORIDE [3]: 101.67 MEQ/L
- CHOLESTEROL [3]: 58.33 mg/dL
- CREATINE PHOSPHOKINASE [3]: 191.33 u/L
- CREATININE [3]: 0.28 mg/dL
- GLUCOSE [3]: 143 mg/dL
- LACTATE DEHYDROGENASE [3]: 90.33 u/L
- LIPASE [3]: 9 u/L
- PHOSPHORUS [3]: 12.8 mg/dL
- POTASSIUM [3]: 8.04 MEQ/L
- SODIUM [3]: 142.4 MEQ/L
- TOTAL BILIRUBIN [3]: 0.27 mg/dL
- TOTAL PROTEIN [3]: 6 G/DL
- URIC ACID [3]: 1.53 mg/dL
- ABSOLUTE BASOPHIL [4]: 0 CELLS/uL
- ABSOLUTE EOSINOPHIL [4]: 0 CELLS/uL
- ABSOLUTE LYMPHOCYTE [4]: 15341.33 CELLS/uL
- ABSOLUTE MONOCYTE [4]: 266 CELLS/uL
- ABSOLUTE SEGMENTED NEUTROPHIL [4]: 992.67 CELLS/uL
- BASOPHIL [4]: 0%
- EOSINOPHIL [4]: 0%
- ERYTHROCYTE COUNT [4]: 6.24 x10E6/uL
- HEMATOCRIT [4]: 36.97%
- HEMOGLOBIN [4]: 15.13 G/DL
- LEUKOCYTE COUNT [4]: 16.6 x10E3/uL
- LYMPHOCYTE [4]: 92.33%
- MEAN CORPUSCULAR HEMOGLOBIN [4]: 24.23 pg
- MEAN CORPUSCULAR HEMOGLOBIN CONCENTRATION [4]: 40.93 G/DL
- MEAN CORPUSCULAR VOLUME [4]: 59.27 fL
- MONOCYTE [4]: 1.67%
- NEUTROPHIL [4]: 6%
- NUCLEATED RED BLOOD CELLS [4]: 0.33 /100WBC
- PLATELET COUNT [4]: 1399.33 x10E3/uL
- ALANINE AMINOTRANSFERASE [4]: 39.33 u/L
- ALBUMIN [4]: 4.47 G/DL
- ALKALINE PHOSPHATASE [4]: 328.67 u/L
- ASPARTATE AMINOTRANSFERASE [4]: 73 u/L
- BLOOD UREA NITROGEN [4]: 41 mg/dL
- CARBON DIOXIDE [4]: 25.33 mmol/L
- CHLORIDE [4]: 101.67 MEQ/L
- CHOLESTEROL [4]: 48.67 mg/dL
- CREATINE PHOSPHOKINASE [4]: 295.67 u/L
- CREATININE [4]: 0.37 mg/dL
- GLUCOSE [4]: 149 mg/dL
- LACTATE DEHYDROGENASE [4]: 268.33 u/L
- LIPASE [4]: 9 u/L
- PHOSPHORUS [4]: 10.67 mg/dL
- POTASSIUM [4]: 9.54 MEQ/L
- SODIUM [4]: 140.13 MEQ/L
- TOTAL BILIRUBIN [4]: 0.13 mg/dL
- URIC ACID [4]: 1.4 mg/dL
